# In US9763939B2, “Compositions and methods for treating mitochondrial diseases” (BIOVISTA, INC., priority 2012, dated 2017):
# Columns and labels:
# [1] = Absolute bioavailability; conditions: in vivo; species not given
# [2] = Pharmacokinetics and distribution in the rat; format: in vivo
# [3] = tested on: dopaminergic system; experiment: Effect on the dopaminergic system
# [4] = tested on: reuptake of 5-hydroxytryptamine; experiment: Effect on reuptake of 5-hydroxytryptamine
# [5] = tested on: C57BL/6 mice with MOG-induced EAE; experiment: MOG-induced Experimental Allergic Encephalomyelitis (MOG-EAE) mouse model, spinal cord histology; format: in vivo; conditions: spinal cord H&E histology day 35, pirlindole 30 mg/kg, dexamethasone positive control, dose not given
# Procedure: EXAMPLE. Evaluation of anti-inflammatory and direct protection mode of action. Compounds described herein are evaluated in a standard MOG-induced Experimental Allergic Encephalomyelitis (MOG-EAE) mouse model of neurodegeneration to determine whether the compounds protect neurons directly, or via an indirect anti-inflammatory mode of action. EAE is induced in C57BL/6 mice by the single subcutaneous injection of MOG emulsified in Complete Freund's Adjuvant (CFA) on study days 0 and 6, followed by intraperitoneal supplemental immunostimulation with Pertussis Toxin (PT) carried out once at the time of EAE induction and once again 48 hours later. Test animals are observed for 35 days. Histology samples are harvested from the spinal cords of the animals on day 35 and are stained with Hematoxylin & Eosin (H&E). Analysis of the samples comprises two parameters: a) The Severity Score which refers mainly to infiltration by inflammatory cells and b) White Matter Damage (WMD), which refers mainly to axonal degeneration.
# [6] = tested on: YG8R FRDA mouse neuronal stem cells (NSCs); experiment: FAC/BSO oxidative stress insult, cell viability (Presto Blue), YG8R NSCs; format: cell-based
# Procedure: EXAMPLE. Primary fibroblast and neuronal stem cell (NSC) cultures from the YG8R FRDA mouse model. The cell cultures are used as a rapid means to test the effectiveness of potential therapies before proceeding to longer-term FRDA mouse model investigations. A parallel assay using YG22R NSCs may be used.
# YG8R fibroblasts and NSCs are treated with increasing concentrations of test compound, and a vehicle-only negative control. Optionally, YG8R fibroblasts and NSCs are treated with a positive control compound, such as 1 μM idebenone. Two hours after the initial treatment, cells are lesioned with […] FAC and 1 mM BSO for 48 hours. Cell viability is then determined using Presto Blue Cell Viability Reagent (Life Technologies) for 24 hours and subsequent colorimetric spectrophotometry. […] Similarly, 1.8 μM tetrindole restored the vehicle-treated FAC/BSO cell viability value of 26% to a value of 53% (p<0.001), relative to the vehicle treated non-insulted cell value as 100%.
# Similarly, 1.8 μM tetrindole restored the vehicle-treated FAC/BSO cell viability value of 19% to a value of 40% (p<0.001), relative to the vehicle treated non-insulted cell value as 100%.
# [7] = tested on: human primary fibroblasts from patients suffering from Friedreich's ataxia; experiment: cells
# Procedure: EXAMPLE. […] Briefly, primary human fibroblasts from patients suffering from Friedreich's ataxia and LHON are lesioned with 100 μM BSO (LHON fibroblasts) or 250 μM BSO (FRDA fibroblasts) respectively, for 48 hours. Apoptosis, toxicity and viability rate of cells are determined using the ApoTox-Glo-Kit (Promega): the reagent for assessing viability and toxicity is applied 1:5 into treatment medium and incubated for 30 min at 37° C. Next, fluorescence is measured at the following wavelength sets: 400EX/505EM (viability) and 485EX/520EM (toxicity). In case of apoptosis measurement the caspase reagent was added 1:2 and incubated at RT for 30 min, the caspase activity (apoptosis) was measured as luminescence
# EXAMPLE. Evaluation of Tetracyclic Pyrazinoindoles, and Pharmaceutically Acceptable Salts Thereof. One or more tetracyclic pyrazinoindoles are applied 2 and 24 hours before BSO treatment and are present throughout the assay. An optional reference compound, such as idebenone may be included for comparison. BSO treated cells without any treatment (BSO group) as well as cells neither treated with BSO nor with any treatment (Vehicle Control (VC) group) serve as controls. Cells are assessed for apoptosis, toxicity and viability immediately after BSO lesion by means of the ApoTox-Glo-assay Kit (Promega). Three independent experiments in four technical replicates are performed for all groups as depicted in Table 1 (different tetracyclic pyrazinoindoles are labeled as Test Items (T.I.1-T.I.2) and an optional positive control Reference Item 1 (R.I.1)):
# BSO generally reduces a cell's protection against oxidative damage. Cells harvested from FRDA and LHON patients generate higher levels of ROS than normal cells. Apoptosis, toxicity and viability rate of cells are determined using the ApoTox-Glo-Kit (Promega): the reagent for assessing viability and toxicity is applied 1:5 into treatment medium and incubated for 30 min at 37° C. Next, fluorescence is measured at the following wavelength sets: 400EX/505EM (viability) and 485EX/520EM (toxicity). In case of apoptosis measurement the caspase reagent is added 1:2 and incubated at RT for 30 min, the caspase activity (apoptosis) was measured as luminescence
# Descriptive statistical analysis was performed. Data are presented as mean±standard error of mean (SEM) in percent of vehicle control, MPP+ lesion and BSO lesion, respectively. Differences between compound-treated groups and controls (vehicle, BSO) are evaluated by means of One-Way ANOVA.
# EXAMPLE. […] One vial is thawed and administered 2 and 24 hours before BSO treatment, at concentrations 0.6 μM, 1.8 μM, 5.5 μM and 16 μM. Apoptosis, toxicity and viability rate of cells are determined using the ApoTox-Glo-Kit (Promega). Human primary fibroblasts from patients suffering from Friedreich's ataxia are used. Three independent experiments in four technical replicates are performed for all groups. […] Statistical significance is indicated by NS=not significant p>0.1, *=p<0.05, **=p<0.01, ***=p<0.001 as determined by One-Way ANOVA. Data are shown as group mean+/−SEM.
# EXAMPLE. Tetrindole is diluted in DMSO. One vial is thawed and administered 2 and 24 hours before BSO treatment, at concentrations 0.2 μM, 0.6 μM, 1.8 μM and 5.5 μM. Apoptosis, toxicity and viability rate of cells are determined using the ApoTox-Glo-Kit (Promega). Human primary fibroblasts from patients suffering from Friedreich's ataxia are used. Three independent experiments in four technical replicates are performed for all groups. […] Statistical significance is indicated by NS=not significant p>0.1, *=p<0.05, **=p<0.01, ***=p<0.001 as determined by One-Way ANOVA. Data are shown as group mean+/−SEM.
# [8] = tested on: reuptake of noradrenaline; experiment: Effect on reuptake of noradrenaline
# [9] = tested on: mice; conditions: mouse, in vivo, po
# [10] = rats, after oral and i.p. administration
smiles,measurement,setting,value
"Cc1ccc2c(c1)c1c3n2CCNC3CCC1 (centres unmarked) [pirlindole, 2,3,3a,4,5,6-hexahydro-8-methyl-1H-pyrazino[3,2,1-j,k]carbazole]",bioavailability,[1],20 to 30%
same,fraction eliminated,[2]; after 48 h,80-85%
same,Tmax,"[2]; in vivo, rat, oral, approximately",2 to 6 h
same,second phase of elimination,[2]; rat,35 to 70 h
same,first phase of elimination,"[2]; rat, approximately",approximately 8 h
same,blood brain barrier (BBB) penetration,[2]; [10],good blood brain barrier (BBB) penetration
same,tissue distribution,[2]; [10],"distributed in the lungs, liver, kidneys, spleen and various glands (but only transiently in bone marrow)"
same,fraction eliminated,[2]; within 24 h,40-60%
same,effect on the dopaminergic system,[3],no effect
same,effect on the reuptake of 5-hydroxytryptamine,[4],inhibitory effect
same,Severity Score (infiltration by inflammatory cells),[5]; vehicle 2.85±0.66,2.7±1.29
same,White Matter Damage (WMD) percentage (axonal degeneration),[5]; vehicle 74.2±26.1,41±44.1 percentage
same,protection against the oxidative stress insult,[6],significantly protect
same,viability at 5.5 µM,"[6]; Mus musculus, 5.5 μM, vehicle-treated FAC/BSO value 19%, relative to vehicle treated non-insulted cells as 100%, p<0.001",41%
same,statistically significant overall cytotoxicity over BSO control,[7],not observed at any dose
same,apoptosis (caspase activity),"[7]; 16 μM, only after the short incubation (2 h before lesion)",reduced apoptosis
same,viability at 16 µM,"[7]; Homo sapiens, Fibroblast, 48 h, read-out: protective effect in relative cell viability",161%
same,statistically significant improvement in apoptosis compared to the BSO group,[7]; all tested doses,not observed at any dose
same,effect on the reuptake of noradrenaline,[8],inhibitory effect
same,maximal non-lethal dose,[9],approximately 300 mg/kg
